Patent publication US7763602B2, “Pyrrole derivatives as antimycobacterial compounds” (priority 2002, dated 2010)
≈ marks a conversion by molar mass, not a printed value.

Legend:
Format in all cases: cell-based, Mycobacterium tuberculosis
[1] = system: M. tuberculosis H37Rv ATCC 27294; test: In vitro growth inhibition assay, BACTEC 460 TB system; design: key: +: If ΔGI of test vial is less than that of the control vial the culture was sensitive to the test compound; settings: final concentration 6.25 μg/ml
M. tuberculosis 27294 = test: In vitro agar dilution assay (MIC), reference strain; settings: for MIC (μg/ml) against M. tuberculosis-27294: Table I
[2] = system: M. tuberculosis clinical isolates, sensitive; test: microbe, parasite or virus in culture; settings: for MIC (μg/ml) against Clinical isolates Sensitive: Table I, agar dilution

Compound: COc1ccccc1N1CCN(Cc2cc(-c3ccccc3)n(NC(=O)c3ccncc3)c2C)CC1 [compound 13, N-(3-{[4-(2-methoxyphenyl)piperazinyl]methyl}-2-methyl-5-phenylpyrrolyl)-4-pyridylcarboxamide]
- Growth inhibition of M. tuberculosis 27294 [1]: +
- MIC (μg/ml) against M. tuberculosis-27294 (M. tuberculosis 27294): 0.5 µg/mL (≈ 1.04 µM)
- MIC (μg/ml) against Clinical isolates Sensitive [2]: 0.5 to 2.0 µg/mL

Compound: Cc1c(CN2CCSCC2)cc(-c2ccccc2)n1NC(=O)c1ccncc1 [compound 21, N-[2-methyl-5-phenyl-3-(1,4-thiazaperhydroin-4-ylmethyl)pyrrolyl]-4-pyridyl carboxamide]
- Growth inhibition of M. tuberculosis 27294 [1]: +
- MIC (μg/ml) against M. tuberculosis-27294 (M. tuberculosis 27294): 0.5 µg/mL (≈ 1.27 µM)
- MIC (μg/ml) against Clinical isolates Sensitive [2]: 0.5 to 1.0 µg/mL

Compound: Cc1cc(CN2CCN(c3cccc(C(F)(F)F)c3)CC2)c(-c2ccccc2)n1NC(=O)c1cnccn1 [compound 33, N-(3-{[4-(3-trifluoromethylphenyl)piperazinyl]methyl}-5-methyl-2-phenylpyrrolyl)pyrazin-2-ylcarboxamide]
- Growth inhibition of M. tuberculosis 27294 [1]: +
- MIC (μg/ml) against M. tuberculosis-27294 (M. tuberculosis 27294): 2.0 µg/mL (≈ 3.84 µM)
- MIC (μg/ml) against Clinical isolates Sensitive [2]: 2.0 to 8.0 µg/mL

Compound: Cc1c(CN2CCN(c3cccc(C(F)(F)F)c3)CC2)cc(-c2ccc(Cl)cc2)n1-c1cccc2ccccc12 [compound 60, 1-{[5-(4-chlorophenyl)-2-methyl-1-naphthylpyrrol-3-yl]methyl}-4-(3-trifluoromethylphenyl)piperazine]
- Growth inhibition of M. tuberculosis 27294 [1]: +
- MIC (μg/ml) against M. tuberculosis-27294 (M. tuberculosis 27294): 4.0 µg/mL (≈ 7.14 µM)
- MIC (μg/ml) against Clinical isolates Sensitive [2]: 2.0 to 8.0 µg/mL

Compound: Cc1c(CN2CCN(C)CC2)cc(-c2ccccc2)n1NC(=O)c1ccncc1 [compound 16, N-{2-methyl-3-[(4-methylpiperazinyl)methyl]-5-phenylpyrrolyl}-4-pyridylcarboxamide]
- Growth inhibition of M. tuberculosis 27294 [1]: +
- MIC (μg/ml) against M. tuberculosis-27294 (M. tuberculosis 27294): 2.0 µg/mL (≈ 5.13 µM)
- MIC (μg/ml) against Clinical isolates Sensitive [2]: 2.0 to 4.0 µg/mL

Compound: Cc1c(CN2CCN(c3ccccn3)CC2)cc(-c2ccc(Cl)cc2)n1-c1cccc2ccccc12 [compound 61, 1-{[5-(4-chlorophenyl)-2-methyl-1-naphthylpyrrol-3-yl]methyl}-4-(2-pyridyl) piperazine]
- Growth inhibition of M. tuberculosis 27294 [1]: +
- MIC (μg/ml) against M. tuberculosis-27294 (M. tuberculosis 27294): 4.0 µg/mL (≈ 8.11 µM)
- MIC (μg/ml) against Clinical isolates Sensitive [2]: 4.0 to 8.0 µg/mL

Compound: Cc1c(CN2CCN(C(c3ccccc3)c3ccccc3)CC2)cc(-c2ccccc2)n1NC(=O)c1cnccn1 [compound 30, N-(3-{[4-(diphenylmethyl)piperazinyl]methyl}-2-methyl-5-phenylpyrrolyl)-pyrazin-2-ylcarboxamide]
- Growth inhibition of M. tuberculosis 27294 [1]: +
- MIC (μg/ml) against M. tuberculosis-27294 (M. tuberculosis 27294): 2.0 µg/mL (≈ 3.69 µM)
- MIC (μg/ml) against Clinical isolates Sensitive [2]: 2.0 to 4.0 µg/mL

Compound: Cc1cc(CN2CCN(c3cccc(C(F)(F)F)c3)CC2)c(-c2ccccc2)n1NC(=O)c1ccncc1 [Compound No. 23, N-(3-{[4-(3-trifluoromethylphenyl)piperazinyl]methyl}-5-methyl-2-phenylpyrrolyl)-4-pyridylcarboxamide]
- Growth inhibition of M. tuberculosis 27294 [1]: +
- MIC (μg/ml) against M. tuberculosis-27294 (M. tuberculosis 27294): 0.25 µg/mL (≈ 0.481 µM)
- MIC (μg/ml) against Clinical isolates Sensitive [2]: 0.25 to 1.0 µg/mL

Compound: Cc1c(CN2CCN(C(=O)c3ccco3)CC2)cc(-c2ccc(Cl)cc2)n1-c1ccc(Cl)cc1 [compound 7, 4-{[1,5-bis(4-chlorophenyl)-2-methylpyrrol-3-yl]methyl}piperazinyl-2-furyl-ketone]
- Growth inhibition of M. tuberculosis 27294 [1]: +
- MIC (μg/ml) against M. tuberculosis-27294 (M. tuberculosis 27294): 4.0 µg/mL (≈ 8.09 µM)
- MIC (μg/ml) against Clinical isolates Sensitive [2]: 1.0 to 4.0 µg/mL

Compound: Cc1c(CN2CCN(c3ccccn3)CC2)cc(-c2ccccc2)n1NC(=O)c1ccncc1 [compound 14, N-(3-{[4-(2-pyridyl)piperazinyl]methyl}-2-methyl-5-phenylpyrrolyl)-4-pyridylcarboxamide]
- Growth inhibition of M. tuberculosis 27294 [1]: +
- MIC (μg/ml) against M. tuberculosis-27294 (M. tuberculosis 27294): 4.0 µg/mL (≈ 8.84 µM)
- MIC (μg/ml) against Clinical isolates Sensitive [2]: 4.0 to 8.0 µg/mL

Compound: Cc1c(CN2CCN(C(c3ccccc3)c3ccccc3)CC2)cc(-c2ccc(Cl)cc2)n1-c1ccc(F)cc1F [compound 48, 1-{[1-(2,4-difluorophenyl)-5-(4-chlorophenyl)-2-methylpyrrol-3-yl]methyl}-4-(4-diphenylmethyl)piperazine]
- Growth inhibition of M. tuberculosis 27294 [1]: +
- MIC (μg/ml) against M. tuberculosis-27294 (M. tuberculosis 27294): >16.0 µg/mL
- MIC (μg/ml) against Clinical isolates Sensitive [2]: >16.0 µg/mL

Compound: Cc1c(CN2CCN(Cc3ccc4c(c3)OCO4)CC2)cc(-c2ccc(Cl)cc2)n1-c1ccc(F)cc1F [compound 50, 5-[(4-{[1-(2,4-difluorophenyl)-5-(4-chlorophenyl)-2-methylpyrrol-3-yl]-methyl}-piperazinyl)methyl]-2H-benzo[d]1,3-dioxolane]
- Growth inhibition of M. tuberculosis 27294 [1]: +
- MIC (μg/ml) against M. tuberculosis-27294 (M. tuberculosis 27294): 2.0 µg/mL (≈ 3.73 µM)
- MIC (μg/ml) against Clinical isolates Sensitive [2]: 2.0 to 4.0 µg/mL

Compound: Cc1c(CN2CCN(c3ccc(F)cc3)CC2)cc(-c2ccccc2)n1NC(=O)c1cnccn1 [compound 25, N-(3-{[4-(4-fluorophenyl)piperazinyl]methyl}-2-methyl-5-phenylpyrrolyl)pyrazin-2-ylcarboxamide]
- Growth inhibition of M. tuberculosis 27294 [1]: +
- MIC (μg/ml) against M. tuberculosis-27294 (M. tuberculosis 27294): 2.0 µg/mL (≈ 4.25 µM)
- MIC (μg/ml) against Clinical isolates Sensitive [2]: 2.0 to 4.0 µg/mL

Compound: Cc1c(CN2CCN(c3cccc(C(F)(F)F)c3)CC2)cc(-c2ccccc2)n1NC(=O)c1cnccn1 [compound 27, N-(3-{[4-(3-trifluoromethylphenyl)piperazinyl]methyl}-2-methyl-5-phenylpyrrolyl)pyrazin-2-ylcarboxamide]
- Growth inhibition of M. tuberculosis 27294 [1]: +
- MIC (μg/ml) against M. tuberculosis-27294 (M. tuberculosis 27294): 2.0 µg/mL (≈ 3.84 µM)
- MIC (μg/ml) against Clinical isolates Sensitive [2]: 1.0 to 4.0 µg/mL

Compound: Cc1c(CN2CCN(c3cccc(C(F)(F)F)c3)CC2)cc(-c2ccc(Cl)cc2)n1-c1ccc(F)cc1F [compound 46, 1-{[1-(2,4-difluorophenyl)-5-(4-chlorophenyl)-2-methylpyrrol-3-yl]methyl}-4-(3-trifluoromethylphenyl)piperazine]
- Growth inhibition of M. tuberculosis 27294 [1]: +
- MIC (M. tuberculosis 27294; Mycobacterium tuberculosis, 27294, Table I, read-out: MIC (μg/ml) against M. tuberculosis-27294): 2 µg/mL (≈ 3.66 µM)
- MIC ([2]; Mycobacterium tuberculosis, read-out: MIC (μg/ml) against Clinical isolates Sensitive): 2 to 4 µg/mL (≈ 3.66 to 7.33 µM)

Compound: Cc1cc(CN2CCN(Cc3ccc4c(c3)OCO4)CC2)c(-c2ccccc2)n1NC(=O)c1cnccn1 [compound 35, N-(3-{[4-(2H-benzo[3,4-d]1,3-dioxolan-5-ylmethyl)piperazinyl]methyl}-5-methyl-2-phenylpyrrolyl)pyrazin-2-ylcarboxamide]
- Growth inhibition of M. tuberculosis 27294 [1]: +
- MIC (μg/ml) against M. tuberculosis-27294 (M. tuberculosis 27294): >16.0 µg/mL
- MIC (μg/ml) against Clinical isolates Sensitive [2]: >16.0 µg/mL
